Measured values published in patent publication US20110262425A1, “THERAPEUTIC AGENT FOR MLL LEUKEMIA AND MOZ LEUKEMIA OF WHICH MOLECULAR TARGET IS M-CSF RECEPTOR, AND USE THEREOF” (NATIONAL CANCER CENTER, priority 2007, published 2011).
“Also recorded” adds a separate entry of the source. Structures can show the parent of a compound that is named as a salt.

Experiments:
Type in all cases: in vivo
M-CSFR-expressing cells = test: Ablation of M-CSFR-expressing cells by AP20187 in MOZ-TIF2-induced AML mice (FKBP-Fas suicide gene transgenic BM cells, secondary transplantation); details: then 1 mg/kg every three days
Procedure: FIG. 1 depicts the result of M-CSFR expression in bone marrow cells of MOZ leukemogenesis mice. (A) BM cells from MOZ-TIF2-induced AML mice were analyzed by FACS for expression of GFP and M-CSFR. (B) M-CSFR^high cells and M-CSFR^low/- cells were sorted by flow cytometer. MOZ-TIF2 expression in these cells was investigated by immunoblot analysis using an anti-MOZ antibody. (C, D) Indicated numbers of M-CSFR^high cells (C) and M-CSFR^low/- cells (D) were transplanted into mice irradiated beforehand with a lethal dose of radiation and survival from leukemia onset was investigated. (E) Structure of genes for the M-CSFR promoter, EGFP, the NGFR-FKBP-Fas suicide construct, and activation mechanism of NGFR-FKBP-Fas. In transgenic (Tg) mice, conditional ablation of cells highly expressing M-CSFR can be induced by exposure to an AP20187 dimerizer. (F-I) AML mice were induced by transplantation of BM cells from Tg mice infected with MOZ-TIF2, and 10^5 BM cells from AML Tg mice were secondary transplanted into wild-type mice lethally-irradiated beforehand. The secondary-transplanted mice were exposed to AP20187 seven days after transplantation. Expression of GFP and M-CSFR in BM cells (F, G) and the size of spleens (H) of normal Tg mice (F), and of untreated and AP20187-treated secondary-transplanted mice (G) were analyzed four weeks after transplantation. Leukemia-free survival rate of the untreated and AP20187-treated secondary-transplanted mice were investigated (I).
In the transgenic mice, expression levels of endogenous M-CSFR were proportional to those of EGFP and FKBP-Fas (FIG. 1F), and conditional ablation of M-CSFR-expressing cells can be induced by injection of the AP20187 dimerizer (Burnett, S. H. et al., J Leukoc Biol (2004) 75: 612-23). c-KIT^+ BM cells of the transgenic mice were infected with the MOZ-TIF2 retrovirus, and transplanted into lethally-irradiated wild-type mice. These mice developed AML about two months after transplantation, and their BM cells (10^5 cells/mouse) were transplanted into secondary recipient mice. […]

N-MYC-induced AML = test: Effect of Imatinib on N-MYC-induced AML in mice; details: Imatinib 100 mg/kg orally twice a day
From the text: (§1) FIG. 10 (A-D) BM cells (10^5 cells) from AML mice with MOZ-TIF2 (A), MLL-AF10 (B), or N-MYC (C) were transplanted into irradiated mice. […] (A-C) show the results of analyzing leukemia-free survival of the mice. (D) depicts the photograph showing the result of analyzing spleen sizes of the MOZ-TIF2-introduced mice three weeks after transplantation.

MOZ-TIF2-induced AML = test: Effect of Imatinib on MOZ-TIF2-induced AML in mice; details: Imatinib 100 mg/kg orally twice a day
From the text: as §1

MLL-AF10-induced AML = test: Effect of Imatinib on MLL-AF10-induced AML in mice; details: Imatinib 100 mg/kg orally twice a day
From the text: as §1

SMILES: CC[C@H](C(=O)N1CCCC[C@H]1C(=O)O[C@H](CCc1ccc(OC)c(OC)c1)c1cccc(OCC(=O)NCC(CNC(=O)COc2cccc([C@@H](CCc3ccc(OC)c(OC)c3)OC(=O)[C@@H]3CCCCN3C(=O)[C@@H](CC)c3cc(OC)c(OC)c(OC)c3)c2)CN(C)C)c1)c1cc(OC)c(OC)c(OC)c1 [AP20187]
- development of AML (leukemia-free survival) (M-CSFR-expressing cells; AP20187 10 mg/kg i.v. daily for 5 days, 5-6 weeks after transplantation): suppressed; also recorded: none of the AP20187-treated mice, developed AML
- M-CSFR^high cells in BM (M-CSFR-expressing cells; AP20187 10 mg/kg intravenously daily for 5 days, from seven days after transplantation, three weeks after transplantation): neither M-CSFR^high cells nor splenomegaly were detected
- splenomegaly (M-CSFR-expressing cells; AP20187 10 mg/kg intravenously daily for 5 days, three weeks after transplantation): suppressed; also recorded: neither M-CSFR^high cells nor splenomegaly were detected

SMILES: Cc1ccc(NC(=O)c2ccc(CN3CCN(C)CC3)cc2)cc1Nc1nccc(-c2cccnc2)n1 [Imatinib, Imatinib mesylate]
- progress of AML (leukemia-free survival) (N-MYC-induced AML): did not affect the progress
- MOZ-TIF2-induced splenomegaly (MOZ-TIF2-induced AML; three weeks after transplantation): inhibited
- onset of AML (leukemia-free survival) (MOZ-TIF2-induced AML; MOZ-TIF2): slowed onsets of AML; also recorded: delaying the leukemia onset
- onset of AML (leukemia-free survival) (MLL-AF10-induced AML): slowed onsets of AML; also recorded: delaying the leukemia onset
